Experimental data reported in patent publication US20190070174A1, “METHODS OF TREATING NEURODEGENERATIVE DISEASES” (priority 2016, published 2019).

Key:
[1] = tested on: ATXN3Q81.Luc fusion protein; experiment: Confirmation dose-response, ATXN3 levels by immunoblotting; assay type: cell-based, human; details: 293.ATXN3Q81Luc cells
Source text: Full-length ATXN3 (Accession number ABS29269) carrying either a normal or an expanded polyQ tract (Q26 or Q81) was subcloned in the vector pcDNA3.1 FLAG.firefly Luciferase. The mammalian expression plasmids pcDNA.FLAG.ATXN3Q26.Luc and pcDNA.FLAG.ATXN3Q81.Luc were confirmed by sequencing and shown to express N-terminal FLAG-tagged ATXN3Q26 or ATXN3Q81 fused with firefly Luciferase (Luc), respectively. These neomycin-resistant plasmids were transfected into HEK293 cells using Lipofectamine LTX (Invitrogen) during four hours, after which medium was replaced by growth medium (DMEM/10% fetal bovine serum (FBS)/1% penicillin/streptomycin (PS)). […] After one month of passage in selection medium, stably transfected clones for each cell line (293.ATXN3Q26Luc and 293.ATXN3Q81Luc) were pooled and frozen in liquid nitrogen. Stably transfected cell lines were maintained in selection medium except during treatment with specific compounds that were diluted in growth medium.
Protein lysates from cell cultures, mouse brain slices or mouse brains were obtained by lysis in RIPA buffer containing protease inhibitors (Complete, Roche Diagnostics), followed by sonication and centrifugation. The supernatants (soluble protein fractions) were collected, total protein concentration was determined using the BCA method (Pierce) and then stored at −80° C. Total proteins (50 μg from cell and slice cultures or 75 μg from brain regions of mice) were resolved in 10% SDS-PAGE gels, and corresponding PVDF membranes were incubated overnight at 4° C. with primary antibodies: mouse anti-ATXN3 (1H9) (1:2000; MAB5360, Millipore), goat anti-Luciferase (1:500; G7451, Promega), mouse anti-FLAG (M5) (1:500; IB13091, Sigma), rabbit anti-LC3 (1:500; PM036, MBL International Corporation), mouse anti-HSP90β (1:1000; ADI-SPA842, Enzo Life Sciences), rabbit anti-HSP90α (1:1000; ab2928, Abcam), mouse anti-HSP70 (1:500; SPA810, Enzo Life Sciences), rabbit anti-HSP40 (1:1000; #4868, Cell Signaling), rabbit anti-HSP25 (1:1000; ADI-SPA801, Enzo Life Sciences), rabbit anti-HSF1 (1:1000, ADI-SPA-901, Enzo Life Sciences), rabbit anti-ubiquitin (1:1000, Z 0458, Dako), rabbit anti-RAD23A (1:5000; TA307264, Origene), rabbit anti-RAD23B (1:2000; A302-306A, Bethyl Labs), rabbit anti-α-Tubulin (11H10) (1:10000; #2125, Cell Signaling), and mouse anti-GAPDH (1:1000; MAB374, Millipore). Pellets corresponding to insoluble protein fractions were resuspended in 100 μL of Laemmli buffer 2× and boiled for 10 min. Insoluble proteins were then quantified, and 100 μg were loaded in a filter trap assay apparatus and transferred to a nitrocellulose membrane (0.45 μm pore) that was incubated overnight with rabbit anti-MJD antibody (1:5000) at 4° C. Bound primary antibodies were visualized by incubation with a peroxidase-conjugated anti-mouse or anti-rabbit secondary antibody (1:10000; Jackson Immuno Research Laboratories) followed by treatment with the ECL-plus reagent (Western Lighting, PerkinElmer) and exposure to autoradiography films. Band intensity was quantified by densitometry using ImageJ.

mouse Atxn3 = experiment: Organotypic brain slice cultures from YACMJD84.2 (Q84) mice, immunoblotting; assay type: cell-based; details: sagittal brain slices treated for 48 hours, cerebellum and brainstem
Procedure: Nine slices per brain were used in each set of cultures. […] After 48 hours of incubation at 37° C./5% CO2, brain slices were assessed for ATXN3 levels by immunoblotting or immunofluorescence and for cell viability. For immunoblotting, each slice was macrodissected into separate cerebellum and brainstem that were immediately frozen at −80° C. in 80 μL and 150 μL of cold RIPA buffer containing protease inhibitors (Complete, Roche Diagnostics), respectively. Cell viability was assessed on treated slices by incubation in propidium iodide (PI) 1 μg/mL in culture medium for 1 hour. Slices were then mounted in PROLONG Gold Antifade Reagent (Invitrogen) and imaged using a FV500 Olympus confocal microscope.
Protein lysates from cell cultures, mouse brain slices or mouse brains were obtained by lysis in RIPA buffer containing protease inhibitors (Complete, Roche Diagnostics), followed by sonication and centrifugation. The supernatants (soluble protein fractions) were collected, total protein concentration was determined using the BCA method (Pierce) and then stored at −80° C. […] Insoluble proteins were then quantified, and 100 μg were loaded in a filter trap assay apparatus and transferred to a nitrocellulose membrane (0.45 μm pore) that was incubated overnight with rabbit anti-MJD antibody (1:5000) at 4° C. […] Band intensity was quantified by densitometry using ImageJ. […]

[2] = tested on: high molecular weight (HMW) ATXN3 species; experiment: ATXN3 immunoblotting of protein lysates from fly heads; assay type: in vivo, Drosophila
human ATXN3 transcripts = experiment: Subchronic treatment of Q84 mice, quantitative RT-PCR; assay type: in vivo; details: brainstem, 15 mg/kg IP daily for 10 days
Procedure: (§1) YACMJD84.2 transgenic mice were housed in cages with a maximum number of five animals and maintained in a standard 12-hour light/dark cycle with food and water ad libitum. Genotyping was performed using DNA isolated from tail biopsy at the time of weaning, and genotypes of all studied mice were confirmed using DNA extracted from tails collected post-mortem. […] Five hours after the final injection, mice were anesthetized with ketamine/xylazine and perfused transcardially with phosphate buffered saline (PBS) (for RNA and protein studies), and brains were immediately placed on dry ice and stored at −80° C.
(§2) Reverse transcription of 1.5 μg of total RNA per sample was performed using the iScript cDNA synthesis kit (Bio-RAD). Human ATXN3 and mouse Atxn3, Drd2, 5HT1A, 5HT2A and Gapdh (housekeeping) transcript levels were accessed by quantitative real-time PCR. Relative gene expression was determined using the ΔΔCT method, normalizing for Gapdh mRNA levels.

mouse Atxn3 transcripts = experiment: as above; assay type: in vivo; details: brainstem, 15 mg/kg IP daily for 10 days
Procedure: as §1, §2

insoluble ATXN3 = experiment: Subchronic treatment of Q84 mice, filter trap analysis of insoluble fractions; assay type: in vivo, human; details: brainstem insoluble fractions
Procedure: as §1
Protein lysates from cell cultures, mouse brain slices or mouse brains were obtained by lysis in RIPA buffer containing protease inhibitors (Complete, Roche Diagnostics), followed by sonication and centrifugation. The supernatants (soluble protein fractions) were collected, total protein concentration was determined using the BCA method (Pierce) and then stored at −80° C. […] Pellets corresponding to insoluble protein fractions were resuspended in 100 μL of Laemmli buffer 2× and boiled for 10 min. Insoluble proteins were then quantified, and 100 μg were loaded in a filter trap assay apparatus and transferred to a nitrocellulose membrane (0.45 μm pore) that was incubated overnight with rabbit anti-MJD antibody (1:5000) at 4° C. […] Band intensity was quantified by densitometry using ImageJ.

Hsp90a = experiment: Subchronic treatment of Q84 mice, Western blot of brainstem soluble fractions; assay type: in vivo, mouse
Procedure: as §1
(§3) Protein lysates from cell cultures, mouse brain slices or mouse brains were obtained by lysis in RIPA buffer containing protease inhibitors (Complete, Roche Diagnostics), followed by sonication and centrifugation. The supernatants (soluble protein fractions) were collected, total protein concentration was determined using the BCA method (Pierce) and then stored at −80° C. […] Pellets corresponding to insoluble protein fractions were resuspended in 100 μL of Laemmli buffer 2× and boiled for 10 min. Insoluble proteins were then quantified, and 100 μg were loaded in a filter trap assay apparatus and transferred to a nitrocellulose membrane (0.45 μm pore) that was incubated overnight with rabbit anti-MJD antibody (1:5000) at 4° C. Bound primary antibodies were visualized by incubation with a peroxidase-conjugated anti-mouse or anti-rabbit secondary antibody (1:10000; Jackson Immuno Research Laboratories) followed by treatment with the ECL-plus reagent (Western Lighting, PerkinElmer) and exposure to autoradiography films. Band intensity was quantified by densitometry using ImageJ.

Hsp90β = experiment: as above; assay type: in vivo, mouse
Procedure: as §1, §3

Rad23a = experiment: as above; assay type: in vivo, mouse; details: Q84 mice vs vehicle
Procedure: as §1, §3

SMILES: O=C1CCc2ccc(OCCCCN3CCN(c4cccc(Cl)c4Cl)CC3)cc2N1 [aripiprazole]
- levels of ATXN3Q81.Luc fusion protein [1]: confirmed to decrease levels of ATXN3Q81.Luc fusion protein
- levels of mouse Atxn3 (mouse Atxn3): reduced levels
- HMW ATXN3 species, of levels in vehicle-treated flies ([2]; day 12, 50 μM): 0.73
- HMW ATXN3 species, of levels in vehicle-treated flies ([2]; day 15, 50 μM): 0.41
- HMW ATXN3 species, of levels in vehicle-treated flies ([2]; day 19, 50 μM): 0.53
- human ATXN3 transcript levels vs vehicle-treated mice (human ATXN3 transcripts): similar
- mouse Atxn3 transcript levels vs vehicle-treated mice (mouse Atxn3 transcripts): similar
- insoluble ATXN3 vs vehicle (insoluble ATXN3): no differences
- levels of Hsp90a compared with vehicle-treated mice (Hsp90a): 79%
- levels of Hsp90β compared with vehicle-treated mice (Hsp90β): 22%
- levels of Rad23a (Rad23a): trend toward decreased levels
